Here are results for 25 molecules from patent US20250270200A1, “CTPS1 INHIBITORS AND USES THEREOF” (Nimbus Clotho, Inc., priority 2022, published 2025).

The experiment addresses T1, human CTPS1 (Homo sapiens, UniProt P17812).
T1 sequence (P17812 1-591): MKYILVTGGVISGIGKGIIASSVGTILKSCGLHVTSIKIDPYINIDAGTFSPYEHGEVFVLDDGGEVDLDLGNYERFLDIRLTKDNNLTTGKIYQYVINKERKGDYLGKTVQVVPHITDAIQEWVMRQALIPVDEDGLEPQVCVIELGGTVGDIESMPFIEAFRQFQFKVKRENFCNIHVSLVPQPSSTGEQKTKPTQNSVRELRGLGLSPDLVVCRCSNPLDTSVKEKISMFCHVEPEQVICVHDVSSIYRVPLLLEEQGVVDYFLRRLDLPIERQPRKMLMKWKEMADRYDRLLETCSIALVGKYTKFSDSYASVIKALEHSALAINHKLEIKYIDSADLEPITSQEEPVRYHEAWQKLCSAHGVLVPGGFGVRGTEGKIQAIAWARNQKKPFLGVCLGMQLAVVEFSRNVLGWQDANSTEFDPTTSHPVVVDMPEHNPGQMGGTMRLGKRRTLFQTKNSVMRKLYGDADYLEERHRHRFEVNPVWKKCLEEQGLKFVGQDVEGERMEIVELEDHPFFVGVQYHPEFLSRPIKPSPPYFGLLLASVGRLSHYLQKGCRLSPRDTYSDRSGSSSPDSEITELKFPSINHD
Put plainly: ADP-Glo assay, human CTPS1 enzyme inhibition. It is filed as biochemical. The following applies: wild-type human CTPS1, 25 nM enzyme; ADP-Glo; read-out: ADP-Glo_WT_hCTPS1—25 nM_IC50 (IC50). The method in brief: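 ADP-Glo luminescence quantified ADP produced by 25 nM purified human CTPS1 (full length, FLAG-His tagged) at 25° C within the linear phase. Final substrates: ATP 120 μM, UTP 160 μM, GTP 60 μM, L-glutamine 100 μM; 1% DMSO; pH 7.4 HEPES buffer with Mg2+, KCl, DTT. Compound pre-incubated with enzyme 10 min, then with ATP/UTP 10 min.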
Background: In ADP-Glo the light output rises with the ADP produced.

Regarding `CCOc1cncc(-c2cnc(C(=O)N[C@H](c3cccc(NS(=O)(=O)C(F)F)c3)[C@@H](C)N3CCOCC3)s2)n1` [I-224, N-((1R,2R)-1-(3-((difluoromethyl)sulfonamido)phenyl)-2-morpholinopropyl)-5-(6-ethoxypyrazin-2-yl)thiazole-2-carboxamide], the concentration for half-maximal inhibition (IC50) lay in the range of 5 to 25 nM.

Regarding `CCOc1cncc(-c2cnc(C(=O)N[C@@H](c3cc(NS(=O)(=O)C4CC4)ccn3)[C@@H](C)CO)s2)n1` [I-226, N-((1R,2R)-1-(4-(cyclopropanesulfonamido)pyridin-2-yl)-3-hydroxy-2-methylpropyl)-5-(6-ethoxypyrazin-2-yl)thiazole-2-carboxamide], the IC50 lay within 5 to 25 nM. In the case of `CCOc1cncc(-c2cnc(C(=O)N[C@@H](c3cc(NS(=O)(=O)C4CC4)ccn3)[C@H](C)CO)s2)n1` [I-227, N-((1R,2S)-1-(4-(cyclopropanesulfonamido)pyridin-2-yl)-3-hydroxy-2-methylpropyl)-5-(6-ethoxypyrazin-2-yl)thiazole-2-carboxamide], the IC50 was at most 5 nM. For the molecule `CCOc1cncc(-c2cnc(C(=O)N[C@H](c3cc(NS(=O)(=O)C4CC4)ccn3)[C@@H](C)CO)s2)n1` [I-228, N-((1S,2R)-1-(4-(cyclopropanesulfonamido)pyridin-2-yl)-3-hydroxy-2-methylpropyl)-5-(6-ethoxypyrazin-2-yl)thiazole-2-carboxamide], the IC50 was in the range of 5 to 25 nM. With `CCOc1cncc(-c2cnc(C(=O)N[C@H](c3cc(NS(=O)(=O)C4CC4)ccn3)[C@H](C)CO)s2)n1` [I-229, N-((1S,2S)-1-(4-(cyclopropanesulfonamido)pyridin-2-yl)-3-hydroxy-2-methylpropyl)-5-(6-ethoxypyrazin-2-yl)thiazole-2-carboxamide], the IC50 is at most 5 nM. In the case of `C[C@H](CO)[C@@H](NC(=O)c1ncc(-c2cnn3ccc(Cl)cc23)s1)c1cc(NS(=O)(=O)C2CC2)ccn1` [I-230, 5-(5-chloropyrazolo[1,5-a]pyridin-3-yl)-N-((1R,2S)-1-(4-(cyclopropanesulfonamido)pyridin-2-yl)-3-hydroxy-2-methylpropyl)thiazole-2-carboxamide], the half-inhibitory concentration (IC50) is at most 5 nM. Take `C[C@@H](CO)[C@@H](NC(=O)c1ncc(-c2cnn3ccc(Cl)cc23)s1)c1cc(NS(=O)(=O)C2CC2)ccn1` [I-231, 5-(5-chloropyrazolo[1,5-a]pyridin-3-yl)-N-((1R,2R)-1-(4-(cyclopropanesulfonamido)pyridin-2-yl)-3-hydroxy-2-methylpropyl)thiazole-2-carboxamide]: the IC50 was 5 to 25 nM. For `C[C@@H](CO)[C@H](NC(=O)c1ncc(-c2cnn3ccc(Cl)cc23)s1)c1cc(NS(=O)(=O)C2CC2)ccn1` [I-232, 5-(5-chloropyrazolo[1,5-a]pyridin-3-yl)-N-((1S,2R)-1-(4-(cyclopropanesulfonamido)pyridin-2-yl)-3-hydroxy-2-methylpropyl)thiazole-2-carboxamide], the concentration for half-maximal inhibition (IC50) is 5 to 25 nM. As to `C[C@H](CO)[C@H](NC(=O)c1ncc(-c2cnn3ccc(Cl)cc23)s1)c1cc(NS(=O)(=O)C2CC2)ccn1` [I-233, 5-(5-chloropyrazolo[1,5-a]pyridin-3-yl)-N-((1S,2S)-1-(4-(cyclopropanesulfonamido)pyridin-2-yl)-3-hydroxy-2-methylpropyl)thiazole-2-carboxamide], the half-inhibitory concentration (IC50) was 5 to 25 nM. Consider `CCOc1cncc(-c2cnc(C(=O)N[C@@H](c3cc(NS(=O)(=O)C4CC4)ccn3)[C@H](C)COC)s2)n1` [I-234, N-((1R,2S)-1-(4-(cyclopropanesulfonamido)pyridin-2-yl)-3-methoxy-2-methylpropyl)-5-(6-ethoxypyrazin-2-yl)thiazole-2-carboxamide], for which the IC50 was at most 5 nM. For `CCOc1cncc(-c2cnc(C(=O)N[C@@H](c3cc(NS(=O)(=O)C4CC4)ccn3)[C@@H](C)COC)s2)n1` [I-235, N-((1R,2R)-1-(4-(cyclopropanesulfonamido)pyridin-2-yl)-3-methoxy-2-methylpropyl)-5-(6-ethoxypyrazin-2-yl)thiazole-2-carboxamide], the IC50 lay within 5 to 25 nM. Consider `CCOc1cncc(-c2cnc(C(=O)N[C@H](c3cc(NS(=O)(=O)C4CC4)ccn3)[C@@H](C)COC)s2)n1` [I-236, N-((1S,2R)-1-(4-(cyclopropanesulfonamido)pyridin-2-yl)-3-methoxy-2-methylpropyl)-5-(6-ethoxypyrazin-2-yl)thiazole-2-carboxamide], for which the IC50 was at most 5 nM. `CCOc1cncc(-c2cnc(C(=O)N[C@H](c3cc(NS(=O)(=O)C4CC4)ccn3)[C@H](C)COC)s2)n1` [I-237, N-((1S,2S)-1-(4-(cyclopropanesulfonamido)pyridin-2-yl)-3-methoxy-2-methylpropyl)-5-(6-ethoxypyrazin-2-yl)thiazole-2-carboxamide]: the IC50 is at most 5 nM.

Regarding `CCOc1cncc(-c2cnc(C(=O)N[C@@H](CO[C@H]3CCOC3)c3cc(NS(=O)(=O)C4CC4)ccn3)s2)n1` [I-238, N-((R)-1-(4-(cyclopropanesulfonamido)pyridin-2-yl)-2-(((S)-tetrahydrofuran-3-yl)oxy)ethyl)-5-(6-ethoxypyrazin-2-yl)thiazole-2-carboxamide], the IC50 is 25 to 50 nM. For `CCOc1cncc(-c2cnc(C(=O)N[C@@H](CO[C@@H]3CCOC3)c3cc(NS(=O)(=O)C4CC4)ccn3)s2)n1` [I-239, N-((R)-1-(4-(cyclopropanesulfonamido)pyridin-2-yl)-2-(((R)-tetrahydrofuran-3-yl)oxy)ethyl)-5-(6-ethoxypyrazin-2-yl)thiazole-2-carboxamide], the IC50 was 5 to 25 nM. As to `CCOc1cncc(-c2cnc(C(=O)N[C@H](CO[C@@H]3CCOC3)c3cc(NS(=O)(=O)C4CC4)ccn3)s2)n1` [I-240, N-((S)-1-(4-(cyclopropanesulfonamido)pyridin-2-yl)-2-(((R)-tetrahydrofuran-3-yl)oxy)ethyl)-5-(6-ethoxypyrazin-2-yl)thiazole-2-carboxamide], the half-maximal inhibitory concentration (IC50) is 5 to 25 nM. As for `CCOc1cncc(-c2cnc(C(=O)N[C@H](CO[C@H]3CCOC3)c3cc(NS(=O)(=O)C4CC4)ccn3)s2)n1` [I-241, N-((S)-1-(4-(cyclopropanesulfonamido)pyridin-2-yl)-2-(((S)-tetrahydrofuran-3-yl)oxy)ethyl)-5-(6-ethoxypyrazin-2-yl)thiazole-2-carboxamide], the IC50 was in the range of 5 to 25 nM. For the molecule `CCOc1cncc(-c2cnc(C(=O)N[C@H](c3cccc(NS(=O)(=O)C(F)F)c3)[C@H](C)CO)s2)n1` [I-242, N-((1S,2S)-1-(3-((difluoromethyl)sulfonamido)phenyl)-3-hydroxy-2-methylpropyl)-5-(6-ethoxypyrazin-2-yl)thiazole-2-carboxamide], the concentration for half-maximal inhibition (IC50) was at most 5 nM.

For `CCOc1cncc(-c2cnc(C(=O)N[C@H](c3cccc(NS(=O)(=O)C(F)F)c3)[C@@H](C)CO)s2)n1` [I-243, N-((1S,2R)-1-(3-((difluoromethyl)sulfonamido)phenyl)-3-hydroxy-2-methylpropyl)-5-(6-ethoxypyrazin-2-yl)thiazole-2-carboxamide], the IC50 fell in the range of 5 to 25 nM.

Turning to `CCOc1cncc(-c2cnc(C(=O)N[C@@H](c3cccc(NS(=O)(=O)C(F)F)c3)[C@@H](C)CO)s2)n1` [I-244, N-((1R,2R)-1-(3-((difluoromethyl)sulfonamido)phenyl)-3-hydroxy-2-methylpropyl)-5-(6-ethoxypyrazin-2-yl)thiazole-2-carboxamide], the IC50 was at most 5 nM. As for `CCOc1cncc(-c2cnc(C(=O)N[C@@H](c3cccc(NS(=O)(=O)C(F)F)c3)[C@H](C)CO)s2)n1` [I-245, N-((1R,2S)-1-(3-((difluoromethyl)sulfonamido)phenyl)-3-hydroxy-2-methylpropyl)-5-(6-ethoxypyrazin-2-yl)thiazole-2-carboxamide], the IC50 was at most 5 nM. As for `CCOc1cncc(-c2cnc(C(=O)N[C@@H](CN3CCOCC3)c3cc(NS(=O)(=O)C4CC4)ncn3)s2)n1` [I-246, (S)-N-(1-(6-(cyclopropanesulfonamido)pyrimidin-4-yl)-2-morpholinoethyl)-5-(6-ethoxypyrazin-2-yl)thiazole-2-carboxamide], the 50% inhibitory concentration (IC50) is 5 to 25 nM. As to `CCOc1cncc(-c2cnc(C(=O)N[C@@H](CN3CCN(C4CC4)CC3)c3cc(NS(=O)(=O)C4CC4)ncn3)s2)n1` [I-248, (S)-N-(1-(6-(cyclopropanesulfonamido)pyrimidin-4-yl)-2-(4-cyclopropylpiperazin-1-yl)ethyl)-5-(6-ethoxypyrazin-2-yl)thiazole-2-carboxamide], the IC50 fell in the range of 25 to 50 nM. Regarding `CCOc1cncc(-c2cnc(C(=O)N[C@H](CN3CCN(C4CC4)CC3)c3cc(NS(=O)(=O)C4CC4)ncn3)s2)n1` [I-249, (R)-N-(1-(6-(cyclopropanesulfonamido)pyrimidin-4-yl)-2-(4-cyclopropylpiperazin-1-yl)ethyl)-5-(6-ethoxypyrazin-2-yl)thiazole-2-carboxamide], the IC50 is 25 to 50 nM.

For the molecule `CCOc1cncc(-c2cnc(C(=O)N[C@@H](CN3CCCC3)c3cc(NS(=O)(=O)C4CC4)ncn3)s2)n1` [I-250, (S)-N-(1-(6-(cyclopropanesulfonamido)pyrimidin-4-yl)-2-(pyrrolidin-1-yl)ethyl)-5-(6-ethoxypyrazin-2-yl)thiazole-2-carboxamide], the IC50 lay within 25 to 50 nM.

As a reminder, the IC50 is the midpoint of a concentration-inhibition curve.
